Laboratory results from PubChem BioAssay (NCI).
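Grown in 96-well plates, cells were treated for 48 hours with each compound at five concentrations. Insufficient inhibition: endpoint recorded as highest concentration tested. GI50 is the concentration that inhibits growth by half. TGI is the concentration that stops growth completely.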

Key:
Assay in all cases: growth of human tumour cells (NCI), 48 h
CAKI-1 renal = test system: CAKI-1 renal
NCI/ADR-RES ovarian = test system: NCI/ADR-RES ovarian
OVCAR-4 ovarian = test system: OVCAR-4 ovarian
UACC-62 melanoma = test system: UACC-62 melanoma
TK-10 renal = test system: TK-10 renal
SK-MEL-2 melanoma = test system: SK-MEL-2 melanoma
BT-549 breast = test system: BT-549 breast
SR leukemia = test system: SR leukemia
PC-3 prostate = test system: PC-3 prostate
HCT-116 colon = test system: HCT-116 colon

Structure (SMILES) | GI50 (CAKI-1 renal) [µM] | TGI (CAKI-1 renal) [µM] | GI50 (NCI/ADR-RES ovarian) [µM] | TGI (NCI/ADR-RES ovarian) [µM] | GI50 (OVCAR-4 ovarian) [µM] | TGI (OVCAR-4 ovarian) [µM] | GI50 (UACC-62 melanoma) [µM] | TGI (UACC-62 melanoma) [µM] | GI50 (TK-10 renal) [µM] | TGI (TK-10 renal) [µM] | GI50 (SK-MEL-2 melanoma) [µM] | TGI (SK-MEL-2 melanoma) [µM] | GI50 (BT-549 breast) [µM] | TGI (BT-549 breast) [µM] | GI50 (SR leukemia) [µM] | TGI (SR leukemia) [µM] | GI50 (PC-3 prostate) [µM] | TGI (PC-3 prostate) [µM] | TGI (HCT-116 colon) [µM] | GI50 (HCT-116 colon) [µM]
O=[N+]([O-])c1c(Br)sc(Br)c1[N+](=O)[O-] | 1.83 | 3.63 | 3.3 | 23.8 | 1.85 | 3.62 | 1.87 | 4.68 | 2.31 | 6.18 | 2.79 | 10.3 | 16.1 | 29.7 | 0.633 | 11.7 | 1.94 | 4.03 |  | 
CN(C)c1ccc(Nc2cc(-c3cccc(OC(F)(F)F)c3)nc3ccc(N4CCCC4)cc23)cc1 | 1.75 | 3.57 | 1.92 | 3.88 | 1.98 | 3.77 | 1.8 | 3.29 | 1.84 | 3.3 | 12.4 | 26.5 | 1.96 | 3.58 |  |  |  |  |  | 
O=c1[nH]c(=O)n(C2CC(O)C(CO)O2)cc1C1=NC1 (configuration not stated) |  |  |  | > 100 |  | > 100 |  | > 100 |  | > 100 |  | > 100 |  | > 100 |  |  |  |  | > 100 | 
CN1CCN(c2ccc3nc(-c4ccc5nc(-c6ccc(OCCC(C)(C)C)cc6)[nH]c5c4)[nH]c3c2)CC1 | 4.15 | 15.7 | 35.7 | > 100 | 10.1 | 25.5 | 17.3 | 40.1 | 18.2 | 38.8 | 19.7 | 38.5 | 17.5 | 40.1 | 2.9 | 8.05 | 2.63 | 5.81 |  | 
COc1ccc(Cn2cc3c(c2-c2ccc(OC)cc2)CCc2cnoc2-3)cc1 | 0.309 | > 100 | 0.27 | 4.08 | 0.93 | > 100 | 0.547 | > 100 | 0.616 | > 100 |  |  | 0.76 | > 100 | 0.331 | 1.94 | 0.602 | > 100 | > 100 | 0.451
CC(=O)c1ccc(NC(=O)C(=O)Nn2c(=S)[nH]c3ccccc3c2=O)cc1 |  | > 100 |  |  |  | > 100 |  | > 100 |  | > 100 |  | > 100 |  |  |  | > 100 |  |  | > 100 | 
N#Cc1c(N)nc(N2CCOCC2)c(C#N)c1-c1cccnc1 | 32.6 | 95 | 81.7 | > 100 | 44.4 | > 100 | 43.4 | > 100 | > 100 | > 100 | > 100 | > 100 | > 100 | > 100 |  |  | 33.5 | > 100 | > 100 | 86.6
CCNC(=O)c1cc2c(-c3cc(C(C)(C)O)ccc3Oc3c(C)cc(F)cc3C)cn(C)c(=O)c2[nH]1 | 0.875 | 13.2 | 7.49 | 23.2 | 1.84 | 16.6 | 0.17 | 9.42 | 0.298 | 10.6 | 2.92 | 15 | 2.01 | 11.4 |  |  | 2.42 | 13.9 | 12.5 | 1.32
C1CCN(c2nc(=[N+]3CCCCC3)ss2)CC1 |  | > 100 |  |  |  | > 100 |  | > 100 |  | > 100 |  | > 100 |  |  |  | > 100 |  |  | > 100 | 
Cc1cc(N(CCNc2ccnc3cc(Cl)ccc23)Cc2ccco2)nc(Cl)n1 |  |  | 1.86 | 3.96 | 1.49 | 2.95 | 1.78 | 3.38 | 1.81 | 3.21 | 1.9 | 3.83 | 1.69 | 3.14 |  |  | 1.71 | 3.18 | 2.84 | 1.48
CCCCCCCCCc1cccc(N2C(N)=NC(N)=NC2(C)C)c1 |  | 2.5 |  | 24.9 |  | 4.39 |  | 4.07 |  | 1.48 |  | 4.65 |  | 3.86 |  |  |  | > 35.7 | 1.15 | 
O=C(Nc1ccccc1)NS(=O)(=O)c1ccc(-n2nc3c(c2-c2ccc(Cl)cc2)Cc2ccccc2-3)cc1 | 4.37 | 29.2 |  |  | 45.2 | > 100 | 12.2 | 30.6 | 18.3 | 74.4 | 27.4 | 91.8 | 21 | 65.9 | 2.82 | 7.18 | 16.7 | 47.8 | > 100 | 22.5
COc1ccc(/C=c2\sc3n(c2=O)C(N)=C(C#N)C(c2ccc(OC)cc2)C=3c2nc3ccccc3[nH]2)cc1 (configuration not stated) |  | 42.9 |  |  |  | > 100 |  | > 100 |  | 66.5 |  | 61.5 |  |  |  | > 100 |  |  | 64.1 | 
C[C@@H](CO)[C@@H]1CCC=C2CC[C@]3(C)[C@H](CC[C@@H]4[C@@]5(C)CCCNC(C)(C)[C@@H]5CC[C@]43C)[C@H]21 | 1.89 | 4.25 | 2.05 | 4.45 | 1.98 | 5.02 | 1.73 | 3.18 | 8.36 | 24.8 | 2.08 | 4.29 | 5.11 | 24.9 | 5.44 | > 100 | 2.97 | 13.4 |  | 
COc1ccc(/C=C2\CCC(CNc3ccc(OC)cc3)C2=O)cc1 (configuration not stated) |  | 41 |  | > 100 |  | 45.7 |  | 48 |  | 36 |  |  |  | 26.8 |  |  |  | 37 | 23.2 | 
Clc1ccc(C2SCc3nc4ccccc4n32)cc1Cl (configuration not stated) |  | 27 |  |  |  | 25.8 |  | 27.1 |  | 25.9 |  | 35.5 |  |  |  | 55.1 |  |  | 26.2 | 
CCc1cccc(C(C)C)c1NC(=O)C(=O)C(CC(=O)Nc1ccc(Cl)c(Cl)c1)C(=O)OC (configuration not stated) |  | > 100 |  |  |  | > 100 |  | 6.77 |  | > 100 |  | > 100 |  |  |  | > 100 |  |  | > 100 | 
S=c1cc(S)sc2c1c(=S)sc1nc3ccccn3c(=S)c12 |  | > 100 |  |  |  | > 100 |  | > 100 |  | > 100 |  | > 100 |  |  |  | > 100 |  |  | > 100 | 
